# Assay results published in ChEMBL document CHEMBL2424622, “Development of amino-pyrimidine inhibitors of c-Jun N-terminal kinase (JNK): kinase profiling guided optimization of a 1,2,3-benzotriazole lead” (Bioorg Med Chem Lett, 2013).
# Key:
# [1] = Half life in Hanover-Wistar rat at 20 mg/kg, po; type: ADME, organism-based; design: dose 20 mg/kg, route oral; conditions: in vivo
# [2] = Half life in Hanover-Wistar rat at 0.5 mg/kg, iv; type: ADME, organism-based; design: dose 0.5 mg/kg, route intravenous; conditions: in vivo
# [3] = biological target: Atypical kinase COQ8B, mitochondrial (Homo sapiens, UniProt Q96D53); assay: Binding affinity to ADCK4 (unknown origin)
# Chain of Atypical kinase COQ8B, mitochondrial (Q96D53 whole entry): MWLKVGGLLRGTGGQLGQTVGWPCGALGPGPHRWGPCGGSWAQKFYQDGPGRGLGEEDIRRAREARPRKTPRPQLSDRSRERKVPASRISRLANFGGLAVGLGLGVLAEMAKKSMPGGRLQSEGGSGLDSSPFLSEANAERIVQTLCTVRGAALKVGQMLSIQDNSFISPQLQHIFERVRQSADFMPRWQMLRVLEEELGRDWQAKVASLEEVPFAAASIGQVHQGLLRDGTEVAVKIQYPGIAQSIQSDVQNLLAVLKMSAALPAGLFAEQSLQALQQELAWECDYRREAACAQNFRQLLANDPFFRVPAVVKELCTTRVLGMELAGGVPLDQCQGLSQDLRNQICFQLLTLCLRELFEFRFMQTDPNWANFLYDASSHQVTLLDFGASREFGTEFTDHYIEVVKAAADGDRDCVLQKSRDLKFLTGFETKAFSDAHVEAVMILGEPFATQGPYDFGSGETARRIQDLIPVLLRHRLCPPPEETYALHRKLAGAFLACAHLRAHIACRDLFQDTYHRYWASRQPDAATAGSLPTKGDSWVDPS
structure (smiles),measurement,setting,value
CS(=O)(=O)CCCOc1cccc2c1ccn2-c1ccnc(N[C@H]2CC[C@H](C(=O)N3CCC(O)CC3)CC2)n1,half-life,[1],174 min
same,half-life,[2],156 min
same,Kd,[3],4.8 µM
